The nature of series [1]: Nonlinear mixed effect (NLME) compartmental modeling of merged IV and oral serum concentrations. Conditions: for Volume(s) of the peripheral compartment: for PFOA first peripheral compartment. From the text:
A nonlinear mixed effect (NLME) modeling approach was used to analyze simultaneously all data obtained from the different rabbits after both IV and oral administrations and to provide robust estimates of the typical TK parameters.
The primary parameters of the model, namely the volume of distribution of the central compartment (V1), the first-order rate constants ( K10 , K12 , K21 , and Kabs plus K13 , K31 for PFOA) and the bioavailability (F) and their associated precisions [standard error (SE)] were estimated by minimizing an objective function value (OFV) expressed as minus twice the log of the likelihood estimation ( −2LL ). […] Marginal likelihood was approximated by using the Laplacian engine by default and, when this engine was unable to determine the SE of the estimate, the Quasi-Random Parametric Expectation Maximization (QRPEM) was selected.
Between subject variability (BSV) of the parameters was measured using the exponential model θparameter_i=θtv_parameter×exp (ηi), where θparameter_i is the parameter estimated for the ith individual, θtv_parameter is the typical population value of the parameter, and ηi is the deviation associated with the ith individual from the corresponding value of the parameter at the population level.
The distribution of ηi was assumed to be normal with a mean of 0 and a variance ω² . BSV was reported as a coefficient of variation (CV) in the original scale CV(%)=100× exp (ω^2)−1 .
The residual variance was modeled using a combined additive and proportional error model Cobsij=Cpredij(1 + ε1ij) + ε2ij, where Cobsij and Cpredij are respectively the jth observed and predicted concentrations for the ith individual, and ε1ij and ε2ij are the multiplicative and additive residual errors.
Secondary parameters were calculated from the population primary parameters.
The clearance values (CL) were estimated using Equation 5: (5) CL=K10×V1, where V1 is the volume of the central compartment and K10 is the elimination rate constant from the central compartment.
The volume of the peripheral compartment (V2) was estimated with Equation 6: (6) V2=V1×(K12/K21), where K12 and K21 are the distribution rate constants between the central and the peripheral compartments.
The clearance of distribution (Q) was estimated using Equation 7: (7) Q=K12×V1, with […] and K12 as defined above.
The volume of distribution associated with the terminal phase was estimated with Equation 10: (10) VZ=CL/λZ, with λZ as defined above.
The AUC was computed as a secondary parameter using Equation 11: (11) AUC=Dose/CL.
The terminal half-life was estimated with Equation 1, as previously described.

Series [2] in a line: Chronic exposure: daily oral mixture for 17 wk, steady-state serum concentrations. Conditions: for concentration at 17 wk: female, New Zealand white (INRA 1777 line), rabbit, in vivo, po. The method, then:
The objective of this preliminary experiment was to check the ability of our approach to determine the loading and maintenance doses of the eight compounds to be administered simultaneously by oral route to reproduce in female rabbits targeted serum concentrations. The experiment was carried out on thirty-two 2-wk old female New Zealand white rabbits (INRA 1777 line) randomly allocated to a treatment and control groups of 16 rabbits weighing 309±45g and 298±62g , respectively. The treated rabbits were orally administrated a mixture of the eight compounds at a dosage corresponding to the sum of the loading and daily maintenance doses followed by daily administrations of the maintenance dose for 17 wk (see the “Estimation of the doses” section). The control group was orally administrated the vehicle for the same duration.
The volume of the maintenance dosing solution ( 1mL/kg ) was weekly adjusted to the mean BW estimated from the known pattern of growth of the INRA 1777 rabbit line. Oral dosing and antemortem blood sampling were performed as previously described.
Blood samples were left to clot for about 20–30 min at ambient temperature and centrifuged for 20 min at 3,000×g at 25°C. The separated serum was stored in glass tubes at −20°C until assayed.

[3] abbreviates: population primary parameter, typical value, mean.
The mark [4] stands for this setting: population secondary parameter, mean.
Setting [5] is: female, New Zealand white (INRA 1777 line), rabbit, in vivo.
The mark [6] stands for this setting: female, New Zealand white (INRA 1777 line), rabbit, in vivo, po, Oral bioavailability (F), NLME model.
The mark [7] stands for this setting: female, New Zealand white, rabbit, in vivo.
[8] abbreviates: female, New Zealand white, rabbit, in vivo, population secondary parameter, mean.
The mark [9] stands for this setting: female, New Zealand white, rabbit, in vivo, iv.
[10] abbreviates: female, New Zealand white, rabbit, in vivo, po.
Setting [11] is: female, New Zealand white, rabbit, in vivo, po, Bioavailability, population secondary parameter, mean, as fraction.
Where [12] appears, read: population primary parameter, typical value, mean, MEHP after oral DEHP.

In general, half-life refers to the time in which the quantity being followed falls by half. Low readings indicate fast loss, high ones slow loss. As for `CCCCC(CC)COC(=O)c1ccccc1C(=O)O` (stereo not drawn) [MEHP, mono(2-ethylhexyl)phthalate], the “F value for MEHP (fraction of the DEHP dose metabolized into MEHP)” value in series [1] (MEHP IV vs DEHP oral, NLME model) worked out at 87%. This compound yielded an AUCIV in series [1] (dosing time to infinity after intravenous dosing, population secondary parameter) of 9.0 µM·h. This compound yielded an AUCVO in series [1] (dosing time to infinity after oral dosing, population secondary parameter, MEHP after oral DEHP) of 53 µM·h. Besides, in series [1] (setting [3]), the “tvK10 (elimination rate constant from the central compartment)” value was determined as 1.411 h⁻¹, the “tvK12 (distribution rate constant)” value was found to be 0.285 h⁻¹ and the “tvVc (volume of the central compartment)” value came out at 0.329 L/kg. In series [1] (setting [4]), the Clearance turned out to be 7.83 mL/min/kg, the MRT was 0.342 days and the “Volume(s) of the peripheral compartment” value is 3.5 L/kg. For the same compound, in series [1] (population secondary parameter, mean, listed as mono-2-ethylhexyl phthalate), the MRT result is on record as “a few hours”. In series [1] (terminal, population secondary parameter, mean), this compound had a half-life of 1.29 days. In addition, in series [2] (serum, mean±SD, n=16, after 17 weeks of oral mixture, MEHP after DEHP dosing), the “Observed CSS” value is 51±28 (MEHP) ng/mL.

As to `O=C(O)C(F)(F)C(F)(F)C(F)(F)C(F)(F)C(F)(F)C(F)(F)C(F)(F)F` [PFOA, perfluorooctanoic acid], in series [1] (PFOA 3-compartments model), the “tvK13 (distribution rate constant)” value is 0.0039 h⁻¹ and the “tvK31 (distribution rate constant)” value was found to be 0.0080 h⁻¹. In addition, the “Volume(s) of the peripheral compartment, second value” in series [1] (PFOA three-compartment model, second peripheral compartment) is listed as 0.049 L/kg. Also, in series [1] (setting [5]), the Vd is 0.19 L/kg and the k el was 2.08e-05 s⁻¹. The bioavailability in series [1] (setting [6]) is 100%. Also, in series [1] (setting [7]), the MRT was found to be 1.04 days and the half-life was 3.83 days. In series [1] (setting [8]), the clearance is less than 0.167 mL/min/kg. This compound also came in with an AUC in series [1] (setting [9]) of 26 µM·h. The AUC in series [1] (setting [10]) was 128 µM·h. Moreover, the bioavailability in series [1] (setting [11]) was found to be 100%. The AUCVO/dose in series [1] (oral dosing) is on record as 133 μmol×h/L per μmol/kg BW. For the same compound, in series [1] (setting [3]), the “tvK12 (distribution rate constant)” value turned out to be 0.047 h⁻¹, the “tvK21 (distribution rate constant)” value was 0.127 h⁻¹ and the “tvVc (volume of the central compartment)” value is 0.101 L/kg. In addition, the “tvKabs (rate constant of absorption)” value in series [1] (setting [12]) is 1.408 h⁻¹. The “Volume(s) of the peripheral compartment” value in series [1] (setting [4]) turned out to be 0.037 L/kg. Moreover, the concentration at 17 wk in series [2] is 43 ± 9.4 ng/mL.

Regarding `ClC(Cl)=C(c1ccc(Cl)cc1)c1ccc(Cl)cc1` [pp′DDE, 1,1-Dichloro-2,2-bis(p-chlorophenyl)ethylene], in series [1] (setting [5]), the Vd came out at 35 L/kg and the k el is 1.33e-05 s⁻¹. In series [1] (female, New Zealand white (INRA 1777 line), rabbit, in vivo, po, Oral bioavailability (F)), this compound showed a bioavailability of 72%. In addition, in series [1] (setting [7]), the MRT stood at 10.9 days, the half-life was 11.3 days and the clearance is 2.17 mL/min/kg. In series [1] (setting [9]), this compound displayed an AUC of 17 µM·h. In series [1] (setting [10]), this compound had an AUC of 77 µM·h and an AUCVO/dose of 5.35 μmol×h/L per μmol/kg BW. Also, in series [1] (female, New Zealand white, rabbit, in vivo, po, Bioavailability), the bioavailability came to 72%. Moreover, in series [1] (setting [3]), the “tvK12 (distribution rate constant)” value was 0.08353 h⁻¹, the “tvK21 (distribution rate constant)” value was 0.00729 h⁻¹ and the “tvVc (volume of the central compartment)” value is on record as 2.821 L/kg. Further, in series [1] (setting [12]), the “tvKabs (rate constant of absorption)” value was determined as 0.01994 h⁻¹. The “Volume(s) of the peripheral compartment” value in series [1] (setting [4]) is reported as 32 L/kg. The compound further displayed a concentration at 17 wk in series [2] of 25 ± 12 ng/mL.

For `Cl[C@H]1[C@H](Cl)[C@@H](Cl)[C@H](Cl)[C@@H](Cl)[C@@H]1Cl` [β-HCH, β-hexachlorocyclohexane], the Vd in series [1] (setting [5]) stood at 33 L/kg. In series [1] (setting [6]), the bioavailability is greater than 85%. The compound further showed a k el in series [1] (female, New Zealand white (INRA 1777 line), rabbit, serum, other: intravenous and oral data merged) of 4.69e-06 s⁻¹. In series [1] (setting [7]), this compound showed an MRT of 15.8 days and a half-life of 13.2 days. For the same compound, in series [1] (setting [8]), the clearance is 1.45 mL/min/kg. For the same compound, the AUC in series [1] (setting [9]) amounted to 20 µM·h. In series [1] (setting [10]), the AUC amounted to 87 µM·h. The compound also had a bioavailability in series [1] (setting [11]) of 88%. Besides, in series [1] (oral dosing), the AUCVO/dose turned out to be 12.5 μmol×h/L per μmol/kg BW. Further, in series [1] (setting [3]), the “tvK12 (distribution rate constant)” value was 0.0593 h⁻¹, the “tvK21 (distribution rate constant)” value was 0.0110 h⁻¹ and the “tvVc (volume of the central compartment)” value is 5.1310 L/kg. For the same compound, the “tvKabs (rate constant of absorption)” value in series [1] (setting [12]) was determined as 0.0955 h⁻¹. The “Volume(s) of the peripheral compartment” value in series [1] (setting [4]) came to 28 L/kg. The concentration at 17 wk in series [2] turned out to be 4.3 ± 1.6 ng/mL.

Values taken from paper PMC8597046, “Use of Mixture Dosing and Nonlinear Mixed Effect Modeling of Eight Environmental Contaminants in Rabbits to Improve Extrapolation Value of Toxicokinetic Data” (Environmental Health Perspectives, 2021).
